Columns and labels:
Test in all cases: Inhibition Assay
Carboxypeptidase A1 = target: T1, Carboxypeptidase A1 (Bos taurus, UniProt P00730)
T1 sequence (P00730 whole entry): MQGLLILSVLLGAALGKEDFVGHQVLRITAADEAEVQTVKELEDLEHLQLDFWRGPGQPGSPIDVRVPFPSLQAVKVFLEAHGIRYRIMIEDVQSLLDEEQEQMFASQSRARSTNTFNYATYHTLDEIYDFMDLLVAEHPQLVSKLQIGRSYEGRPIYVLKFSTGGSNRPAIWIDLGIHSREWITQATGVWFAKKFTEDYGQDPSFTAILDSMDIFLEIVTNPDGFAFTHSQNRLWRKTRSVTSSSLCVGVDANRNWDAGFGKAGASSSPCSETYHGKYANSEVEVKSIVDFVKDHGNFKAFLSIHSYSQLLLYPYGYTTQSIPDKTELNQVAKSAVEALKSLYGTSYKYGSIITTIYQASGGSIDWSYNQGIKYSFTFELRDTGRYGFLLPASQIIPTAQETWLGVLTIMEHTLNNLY
Excerpt: (§1) The aromatic compounds screening were characterized by molecular docking as well as by in vitro inhibition assay against carboxypeptidase(CPs) of different specifications and natural origin.

Carboxypeptidase B = target: T2, Carboxypeptidase B (Helicoverpa zea, UniProt Q3T905)
T2 sequence (Q3T905 whole entry): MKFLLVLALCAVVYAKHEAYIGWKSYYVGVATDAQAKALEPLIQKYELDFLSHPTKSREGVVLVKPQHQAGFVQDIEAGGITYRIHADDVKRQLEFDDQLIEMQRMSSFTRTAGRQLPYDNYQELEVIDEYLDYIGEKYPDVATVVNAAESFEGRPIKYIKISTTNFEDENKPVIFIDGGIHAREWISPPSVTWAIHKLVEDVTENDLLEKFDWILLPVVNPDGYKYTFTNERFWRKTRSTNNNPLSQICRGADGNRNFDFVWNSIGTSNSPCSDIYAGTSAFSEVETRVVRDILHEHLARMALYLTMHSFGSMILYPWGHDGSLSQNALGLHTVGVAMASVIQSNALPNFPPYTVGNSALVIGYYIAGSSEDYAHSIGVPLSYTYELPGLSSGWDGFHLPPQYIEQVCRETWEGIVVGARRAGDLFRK
Excerpt: as §1

Carboxypeptidase B2 = target: T3, Carboxypeptidase B2 (Homo sapiens, UniProt Q96IY4)
T3 sequence (Q96IY4 whole entry): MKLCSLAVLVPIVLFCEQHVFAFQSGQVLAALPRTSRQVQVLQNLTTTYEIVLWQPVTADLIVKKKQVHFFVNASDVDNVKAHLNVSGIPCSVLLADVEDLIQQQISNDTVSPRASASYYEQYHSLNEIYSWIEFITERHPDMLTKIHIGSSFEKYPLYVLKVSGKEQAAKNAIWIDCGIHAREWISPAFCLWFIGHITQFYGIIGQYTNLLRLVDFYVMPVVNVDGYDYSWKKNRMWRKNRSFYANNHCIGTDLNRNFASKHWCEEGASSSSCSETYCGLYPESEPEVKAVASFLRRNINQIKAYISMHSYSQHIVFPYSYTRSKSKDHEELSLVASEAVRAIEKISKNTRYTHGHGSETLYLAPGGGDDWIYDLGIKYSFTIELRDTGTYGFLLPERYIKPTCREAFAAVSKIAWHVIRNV
Excerpt: as §1

Row | Structure (SMILES) | Ki (Carboxypeptidase A1) | Ki (Carboxypeptidase B) | Ki (Carboxypeptidase B2)
1 | Nc1nccc2ccc(CC(N)C(=O)O)cc12 (stereo not given) [2-amino-3-(1-aminoisoquinolin-7-yl)propanoic acid, 2] | 290 µM | 129 µM | 145 µM
2 | O=C(O)CCSc1nnc(COc2cccc3ccccc23)n1-c1ccccc1 [3-(5-((naphthalen-1-yloxy)methyl)-4-pheny-4H-1,2,4-triazol-3-ythio)propanoic acid, 8] | 10.4 µM | 35 µM | 11.8 µM
3 | COc1ccc2[nH]c(=O)c(CN(CCO)C(=S)Nc3ccc(C)cc3)cc2c1 [1-(2-hydroxyethyl)-1-((6-methoxy-2-oxo-1,2-dihydroquinolin-3-yl)methyl)3-yl)methyl)-3-p-tolythiourea, 7] | 420 µM | 20.5 µM | 22.5 µM
4 | Cc1ccc2[nH]c(=O)c(CN(Cc3cccs3)C(=S)NC(C)c3ccccc3)cc2c1 (stereo not given) [1-((6-methyl-2-oxo-1,2-dihydroquinolin-3-yl)methyl)-3-(1-phenylethyl)-1-(thiophen-2-ylmethyl)thiourea, 10] | 3.8 µM | 0.58 µM | 1.6 µM
5 | O=c1[nH]c(CN(Cc2ccccc2)S(=O)(=O)c2ccc(F)cc2)nc2ccccc12 [N-benzyl-4-fluoro-N-((4-hydroxyquinazolin-2-yl)methylbenzensulfonamide, 9] | 37 µM | 82 µM | 14.3 µM
6 | COC(=O)c1ccccc1NC(=S)N(Cc1ccco1)Cc1cc2cccc(C)c2[nH]c1=O [methyl 2-(3-furan-2-ylmethyl)-3-((8-methyl-2-oxo-1,2,-dihydroquinolin-3-yl)methyl)thioureido)benzoate, 11] | 15 µM | 1.2 µM | 13.3 µM
7 | Cc1ccc(C(=O)CSc2nnc(COc3ccc4ccccc4c3)o2)cc1 [2-(5-(naphthalen-2-yloxy)methyl)-1,3,4-oxadiazol-2-ylthio)-1-p-tolylethanone, 5] | 58 µM | 1.6 µM | 1.9 µM
8 | Cc1ccc(C(=O)CSc2nnc(COc3cccc4cccnc34)o2)cc1 [1-(4-methylphenyl)-2-[[5-(8-quinolinyloxymethyl)-1,3,4-oxadiazol-2-yl]thio]ethanone] | 32 µM | 14 µM | 50 µM
9 | O=C(Cn1nnc(-c2cccs2)n1)N1CCc2ccccc2C1 [1-(3,4-dihydroisoquinolin-2(1H)-yl)-2-(5thiophen-2-yl)-2H-tetrazol-2-yl)ethanone, 3] | 520 µM | 62 µM | 32 µM
10 | Nc1nccc2cc(CC(N)C(=O)O)ccc12 (stereo not given) [2-Amino-3-(1-aminoisoquinolin-6-yl)propanoic acid, 1] | 280 µM | 100 µM | 220 µM

Reference: BindingDB's records for doi:10.1111/j.1747-0285.2008.00752.x (Universitat Aut&Ogravenoma De Barcelona, 2009)
